Source: the supplement of paper PMC10307832

What was measured:
Test in all cases: relative viability (nuclei count vs DMSO), 5 days (fraction); higher = more cells survive
201T = tested on: 201T
Outline: (§1)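 Lung cancer cell lines, seeded in 1536-well plates, were treated the following day by pin tool with a single drug or with five library-drug doses (not always all listed) in √10 steps on top of a fixed anchor-drug dose. Cells were fixed and nuclei stained in one step after 5 days, and nuclei were counted. Relative viability is the nuclei count for treated wells divided by that for vehicle wells, reported as medians of duplicate plates.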

BEN = tested on: BEN
Outline: as §1

CAL-12T = tested on: CAL-12T
Outline: as §1

ChaGo-K-1 = tested on: ChaGo-K-1
Outline: as §1

EMC-BAC-2 = tested on: EMC-BAC-2
Outline: as §1

H3255 = tested on: H3255
Outline: as §1

HCC-15 = tested on: HCC-15
Outline: as §1

HOP-62 = tested on: HOP-62
Outline: as §1

LU99A = tested on: LU99A
Outline: as §1

NCI-H1395 = tested on: NCI-H1395
Outline: as §1

NCI-H1650 = tested on: NCI-H1650
Outline: as §1

NCI-H1734 = tested on: NCI-H1734
Outline: as §1

NCI-H1944 = tested on: NCI-H1944
Outline: as §1

NCI-H2009 = tested on: NCI-H2009
Outline: as §1

NCI-H2023 = tested on: NCI-H2023
Outline: as §1

NCI-H2347 = tested on: NCI-H2347
Outline: as §1

NCI-H23 = tested on: NCI-H23
Outline: as §1

NCI-H2405 = tested on: NCI-H2405
Outline: as §1

NCI-H358 = tested on: NCI-H358
Outline: as §1

NCI-H441 = tested on: NCI-H441
Outline: as §1

NCI-H650 = tested on: NCI-H650
Outline: as §1

SK-LU-1 = tested on: SK-LU-1
Outline: as §1

Structure (SMILES): Nc1cccc2c1CN(C1CCC(=O)NC1=O)C2=O (stereo not drawn) [Lenalidomide] + CS(=O)(=O)N1CCN(Cc2cc3nc(-c4cccc5[nH]ncc45)nc(N4CCOCC4)c3s2)CC1 [Pictilisib] (partner 1 µM)
- relative viability (201T; first compound 0.253 µM): 0.72
- relative viability (201T; first compound 0.8 µM): 0.532
- relative viability (201T; first compound 2.53 µM): 0.678
- relative viability (201T; first compound 8 µM): 0.603
- relative viability (BEN; first compound 0.253 µM): 0.69
- relative viability (BEN; first compound 0.8 µM): 0.504
- relative viability (BEN; first compound 2.53 µM): 0.644
- relative viability (BEN; first compound 8 µM): 0.436
- relative viability (CAL-12T; first compound 0.253 µM): 0.406
- relative viability (CAL-12T; first compound 2.53 µM): 0.561
- relative viability (CAL-12T; first compound 8 µM): 0.358
- relative viability (ChaGo-K-1; first compound 0.253 µM): 0.791
- relative viability (ChaGo-K-1; first compound 2.53 µM): 0.739
- relative viability (ChaGo-K-1; first compound 8 µM): 0.625
- relative viability (EMC-BAC-2; first compound 0.253 µM): 0.532
- relative viability (EMC-BAC-2; first compound 0.8 µM): 0.474
- relative viability (EMC-BAC-2; first compound 2.53 µM): 0.535
- relative viability (EMC-BAC-2; first compound 8 µM): 0.411
- relative viability (H3255; first compound 0.253 µM): 0.459
- relative viability (H3255; first compound 0.8 µM): 0.519
- relative viability (H3255; first compound 2.53 µM): 0.526
- relative viability (H3255; first compound 8 µM): 0.406
- relative viability (HCC-15; first compound 0.253 µM): 0.744
- relative viability (HCC-15; first compound 2.53 µM): 0.768
- relative viability (HCC-15; first compound 8 µM): 0.668
- relative viability (HOP-62; first compound 0.253 µM): 0.627
- relative viability (HOP-62; first compound 0.8 µM): 0.834
- relative viability (HOP-62; first compound 2.53 µM): 0.922
- relative viability (HOP-62; first compound 8 µM): 0.535
- relative viability (LU99A; first compound 0.253 µM): 0.31
- relative viability (LU99A; first compound 0.8 µM): 0.324
- relative viability (LU99A; first compound 2.53 µM): 0.371
- relative viability (LU99A; first compound 8 µM): 0.238
- relative viability (NCI-H1395; first compound 0.253 µM): 0.682
- relative viability (NCI-H1395; first compound 2.53 µM): 0.647
- relative viability (NCI-H1395; first compound 8 µM): 0.569
- relative viability (NCI-H1650; first compound 0.253 µM): 0.562
- relative viability (NCI-H1650; first compound 0.8 µM): 0.441
- relative viability (NCI-H1650; first compound 2.53 µM): 0.731
- relative viability (NCI-H1650; first compound 8 µM): 0.637
- relative viability (NCI-H1734; first compound 0.253 µM): 0.438
- relative viability (NCI-H1734; first compound 0.8 µM): 0.489
- relative viability (NCI-H1734; first compound 2.53 µM): 0.465
- relative viability (NCI-H1734; first compound 8 µM): 0.329
- relative viability (NCI-H1944; first compound 0.253 µM): 0.382
- relative viability (NCI-H1944; first compound 0.8 µM): 0.309
- relative viability (NCI-H1944; first compound 2.53 µM): 0.319
- relative viability (NCI-H1944; first compound 8 µM): 0.287
- relative viability (NCI-H2009; first compound 0.253 µM): 0.852
- relative viability (NCI-H2009; first compound 0.8 µM): 1.01
- relative viability (NCI-H2009; first compound 2.53 µM): 0.941
- relative viability (NCI-H2009; first compound 8 µM): 0.768
- relative viability (NCI-H2023; first compound 0.253 µM): 0.254
- relative viability (NCI-H2023; first compound 0.8 µM): 0.176
- relative viability (NCI-H2023; first compound 2.53 µM): 0.268
- relative viability (NCI-H2023; first compound 8 µM): 0.187
- relative viability (NCI-H2347; first compound 0.253 µM): 0.396
- relative viability (NCI-H2347; first compound 0.8 µM): 0.634
- relative viability (NCI-H2347; first compound 2.53 µM): 0.602
- relative viability (NCI-H2347; first compound 8 µM): 0.49
- relative viability (NCI-H23; first compound 0.253 µM): 0.372
- relative viability (NCI-H23; first compound 0.8 µM): 0.576
- relative viability (NCI-H23; first compound 2.53 µM): 0.523
- relative viability (NCI-H23; first compound 8 µM): 0.378
- relative viability (NCI-H2405; first compound 0.253 µM): 0.423
- relative viability (NCI-H2405; first compound 0.8 µM): 0.438
- relative viability (NCI-H2405; first compound 2.53 µM): 0.37
- relative viability (NCI-H2405; first compound 8 µM): 0.269
- relative viability (NCI-H358; first compound 0.253 µM): 0.399
- relative viability (NCI-H358; first compound 0.8 µM): 0.428
- relative viability (NCI-H358; first compound 2.53 µM): 0.384
- relative viability (NCI-H358; first compound 8 µM): 0.302
- relative viability (NCI-H441; first compound 0.253 µM): 0.383
- relative viability (NCI-H441; first compound 0.8 µM): 0.453
- relative viability (NCI-H441; first compound 2.53 µM): 0.522
- relative viability (NCI-H441; first compound 8 µM): 0.433
- relative viability (NCI-H650; first compound 0.253 µM): 0.822
- relative viability (NCI-H650; first compound 2.53 µM): 0.911
- relative viability (NCI-H650; first compound 8 µM): 0.739
- relative viability (SK-LU-1; first compound 0.253 µM): 0.602
- relative viability (SK-LU-1; first compound 0.8 µM): 0.58
- relative viability (SK-LU-1; first compound 2.53 µM): 0.704
- relative viability (SK-LU-1; first compound 8 µM): 0.502
